Assay results reported in US7989165B2, “Tape stripping methods for analysis of skin disease and pathological skin state” (DermTech International, priority 2004, dated 2011).
Where “and” joins values, the source holds several entries; their conditions need not be identical. Equal entries are not always repeated.

Assays:
Assay type in all cases: in vivo, human
[1] = tested on: IFNγ mRNA; test: RT-PCR of IFNγ mRNA in tape-stripped psoriatic lesions during Enbrel treatment; conditions: week 8 of treatment
Method: (§1) Patients were treated with Enbrel™ (Etanercept) over a period of months. Both before treatment commenced (week 0) and at various time points during treatment, a lesion was tape stripped using the synthetic rubber-based adhesive MA70 (Adhesives Research) on a polyurethane film. Adhesive strips were manufactured as circles of 17 mm diameter. Skin sites were sequentially stripped with 4 individual tapes, with each tape applied and removed once. The RNA isolated from the adherent cells on all 4 tapes (from one site) was pooled into one sample. Quantitation was by quantitative RT-PCR using the comparative method with β-actin mRNA as the internal normalizing mRNA standard and calibration achieved by using population average values for ΔCt in uninvolved skin of psoriatic subjects (Table 1).

[2] = tested on: IL-23A mRNA; test: RT-PCR of IL-23A mRNA in tape-stripped psoriatic lesions during Enbrel treatment; conditions: week 8 of treatment
Method: as §1

[3] = tested on: GAPDH mRNA; test: RT-PCR of GAPDH mRNA in tape-stripped psoriatic lesions during Enbrel treatment; conditions: week 8 of treatment
Method: as §1

[4] = tested on: IL-12B mRNA; test: RT-PCR of IL-12B mRNA in tape-stripped psoriatic lesions during Enbrel treatment; conditions: week 8 of treatment
Method: as §1

[5] = tested on: TNFα mRNA; test: RT-PCR of TNFα mRNA in tape-stripped psoriatic lesions during Enbrel treatment; conditions: week 8 of treatment
Method: as §1

[6] = tested on: psoriasis; test: Clinical assessment of psoriasis (NPF Score) during Enbrel treatment; parameters: NPF Score: scale not given here
Method: as §1
Rather than calibrate the lesion samples to uninvolved skin of each patient, we have chosen to calibrate to population average values to gain a fold-change relative to non-psoriatic skin. The results of calibrating to each patient's uninvolved skin values were virtually identical (data not shown). […] Thus, positive changes in ΔCt values of these specific mRNAs are negatively correlated with the change from baseline at week 8 in NPF scores. […] In order to assess the significance this observation, the AC, and NPF data in Table 10 was analyzed.

[7] = psoriatic lesion, tape-harvested RNA, relative to β-actin mRNA, one value per patient (P2-P7)

## Enbrel
[1]; INFγ/β-actin mRNA ratio in lesion relative to population average of uninvolved skin, per patient
  Fold Change (Pop-UIS), INFγ mRNA: 0.59 fold and 48.17 fold and 1.49 fold and 8.17 fold and 2.58 fold and 3.25 fold
[1]; [7]
  ΔCt (Lesion), INFγ mRNA: 11.27 and 4.91 and 9.92 and 7.47 and 9.13 and 8.8
[2]; IL-23A/β-actin mRNA ratio in lesion relative to population average of uninvolved skin, per patient
  Fold Change (Pop-UIS), IL-23A mRNA: 5.43 fold and 24.25 fold and 5.70 fold and 9.99 fold and 17.03 fold and 18.64 fold
[2]; [7]
  ΔCt (Lesion), IL-23A mRNA: 6.59 and 4.85 and 6.52 and 5.71 and 4.94 and 4.81
[3]; GAPDH/β-actin mRNA ratio in lesion relative to population average of uninvolved skin, per patient
  Fold Change (Pop-UIS), GAPDH mRNA: 2.04 fold and 1.69 fold and 1.59 fold and 1.40 fold and 1.77 fold and 2.07 fold
[3]; [7]
  ΔCt (Lesion), GAPDH mRNA: 1.04 and 1.31 and 1.4 and 1.58 and 1.25 and 1.02
[4]; IL-12B/β-actin mRNA ratio in lesion relative to population average of uninvolved skin, per patient
  Fold Change (Pop-UIS), IL-12B mRNA: 0.51 fold and 9.45 fold and 5.31 fold and 11.24 fold and 27.86 fold and 105.42 fold
[4]; [7]
  ΔCt (Lesion), IL-12B mRNA: 12.48 and 7.35 and 9.09 and >8.01 and 6.7 and 4.78
[5]; TNFα/β-actin mRNA ratio in lesion relative to population average of uninvolved skin, per patient
  Fold Change (Pop-UIS), TNFα mRNA: 10.06 fold and 16.56 fold and 5.66 fold and 9.00 fold and 11.47 fold and 17.27 fold
[5]; [7]
  ΔCt (Lesion), TNFα mRNA: 4.99 and 4.27 and 5.82 and 5.15 and 4.8 and 4.21
[6]; National Psoriasis Foundation Score at week 8 of treatment, one value per patient (P2-P7)
  NPF Score: 10.7 (5×) and 10.3 (5×) and 16.7 (5×) and 18.7 (5×) and 11.7 (5×) and 12 (5×)
[6]; psoriatic patients, 8 weeks of treatment, negative indicates improvement in disease
  change in NPF score from baseline to week 8: negative
